Source: ChEMBL document CHEMBL5050831, “Substituted quinoxaline derivatives as inhibitors of pfkfb” (2019)

Test: Metabolic stability in human liver microsomes at […] in presence of NADPH assessed as intrinsic clearance
Format: ADME, Microsome
Settings: read-out: CLH

microsomal CLint: 85 µL/min/mg
SMILES: CC(C)[C@H](Nc1cc(-c2ccc3ccn(C)c3c2)c2nccnc2c1)c1cccnc1
